System: normal human fibroblasts
Test: Dermo-decontracting effect on dermal equivalent model (collagen matrix inoculated with fibroblasts), spontaneous contraction
Type: cell-based
Conditions: for % contraction: test compound 10 μM, dermal equivalent surface area at 0, 4, 8 and 24 hours, with respect to the control
Text: The principle of this test consists in studying the effect of the test product on a dermal equivalent model composed of a collagen matrix inoculated with normal human fibroblasts.
These conditions are intended to mimic in vitro the dermal contractile phenomena which occur during facial expressions. This is because, under these conditions, the cells spontaneously express tensile forces which induce retraction of the collagen gel. […] The measurement of this surface area makes it possible to evaluate the relaxing effects of the substances brought into contact beforehand with the dermal equivalent.
Two series of attached dermal equivalents comprising normal human fibroblasts are prepared: a control series without any treatment and a series treated with the test compound (10 μM). The experiment is repeated three times.
The dermal equivalents are prepared as described in Asselineau et al., Exp. Cell. Res., 1985, 159, 536-539; Models in Dermatology, 1987, vol. 3, pp. 1-7, in the following proportions:
The treated dermal equivalent differs from the control dermal equivalent in that 10 μM of the test compound are added thereto.
The collagen used is type I collagen (commercial solution). It is extracted from calf skin by acid hydrolysis and stored in an acidic medium at +4° C. It polymerizes naturally by reheating to 37° C. and by decreasing the degree of acidity. The collagen is dialysed beforehand against successive baths of water+acetic acid.
The protocol is as follows: the 1.76×MEM medium is introduced, in the presence of additives (1% glutamine, 1% non-essential amino acids, 1% sodium pyruvate, 1% fungizone and 1% penicillin/streptomycin), the foetal calf serum and the 0.1N NaOH solution, into a 50 ml centrifuge tube stored in crushed ice. The fibroblasts, isolated from human skin explants, are then added at the concentration of 1.5×10^5 cells per 1 ml of culture medium.
A volume/volume mixture of collagen in acetic acid at 1/1000 is then slowly added, against the wall of the tube, so as to observe the appearance of a whitish cloud.
The combined product is then carefully mixed and distributed in the wells of a 12-well culture plate (Costar type, reference 3512) in a proportion of 2 ml of mixture per well. The final cell concentration is […], with a final concentration of collagen of 1 mg/ml. The culture plate is then placed in an incubator at 37° C. with 5% CO2.
Once formed after polymerization of the collagen, the dermal equivalents are left adhered to the culture support for 3 days and then detached from the support so that the contraction can begin. These detached dermal equivalents are taken out of the incubator in order to take images for the purpose of measuring their surface area, this being for each point of the kinetics of contraction (0, 4, 8 and 24 hours). They are immediately placed back in the incubator between each measurement point.
The evaluation of the spontaneous contraction of the treated (with the test compound) and control (without test compound) dermal equivalents is carried out by measuring their surface area at the different times mentioned after the beginning of the spontaneous contraction.
For this, a digital image is acquired for each treated or untreated dermal equivalent by means of a camera (CCD camera-Iris Sony DXC-107P) and the surface area is subsequently calculated on each image by means of an image analysis system (Zeiss Axiovision 3.0). […]

## Nc1ncnc2c1ncn2[C@@H]1O[C@H](CO)[C@@H](O)[C@H]1O [Adenosine, reference compound]
  % contraction: −15%
Tested at 10 μM
  reduce the contraction of the fibroblasts, on average over the duration of the experiment, with respect to the control: 15%

## CCOC[C@H]1O[C@@H](n2cnc3c(N)ncnc32)[C@@H]2OC(C)(C)O[C@@H]21 [Compound D, 2′,3′-isopropylidene-5′-ethyladenosine]
  % contraction: −21%

## CCCCCCCCOC[C@H]1O[C@@H](n2cnc3c(N)ncnc32)[C@@H]2OC(C)(C)O[C@@H]21 [Compound E, 2′,3′-isopropylidene-5′-octyladenosine]
  % contraction: −26%

## CC(=O)OC[C@H]1O[C@@H](n2cnc3c(N)ncnc32)[C@@H]2OC(C)(C)O[C@@H]21 [Compound G, 2′,3′-isopropylidene-5′-acetyladenosine]
  % contraction: −30%

From patent US20070237734A1, “ANTI-WRINKLE COSMETIC COMPOSITION” (L'OREAL, priority 2006, published 2007)
